# Test results reported in US12338262B2 (Forward Therapeutics, Inc., priority 2022, dated 2025).
# Target: TNF-α (Homo sapiens, UniProt P01375)
# Experiment: TNF-α Induced HEK Blue Cellular Assay
# Assay type: cell-based
# Settings: HEK Blue TNFα reporter cells, TNF-α 100 pg/ml, 24 hrs at 37° C., secreted alkaline phosphatase (QUANTI-Blue, 620 nm)
# Protocol: TNF-α Induced HEK Bluet Cellular Assay
# Test articles were diluted in DMSO and serially diluted into 384 well assay plate (Corning 3765), at final concentrations ranging from […] to 0.5 nM. HEK Blue™ TNFα reporter cells were added at a final density of 10,000 cell per well in assay media [DMEM (Gibco, cat #21063-029), 10% fetal bovine serum (ExcelBio, cat #FND500), 1% Penicillin-Streptomycin (Solarbio, cat #P1400-100]. TNF-α (R&D 210-TA-020/CF) was then added to the assay plate at a final concentration of 100 pg/ml. This plate was then incubated for 24 hrs at 37° C. and 5% CO2. Secreted alkaline phosphatase expression was then measured using QUANTI-Blue™ (Invivogen), according to manufacturer instructions and read on an Envision microplate reader at 620 nm.
# Inhibition data for test compound over a range of concentration was plotted as percentage inhibition of the test compound (100%=maximum inhibition). IC50 values were determined after correcting for background [(sample read-mean of low control)/(mean of high control-mean of low control)] where by the low control is DMSO without stimulation and high control is DMSO with stimulation. The IC50 is defined as the concentration of test compound which produces 50% inhibition and was quantified using the 4 parameter logistic equation to fit the data.
# Chain of TNF-α (P01375 77-233 limits assumed): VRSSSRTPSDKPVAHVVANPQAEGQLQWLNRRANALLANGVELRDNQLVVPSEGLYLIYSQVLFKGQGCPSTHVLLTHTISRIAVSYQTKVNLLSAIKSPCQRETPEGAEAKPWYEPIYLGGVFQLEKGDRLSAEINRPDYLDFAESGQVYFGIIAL
row,Compound,IC50 [nM]
1,"Cc1nc2cc(F)c(-c3cnc(P(C)(C)=O)nc3)nc2c(N[C@H](C)c2ccccc2F)c1Cl [Example 7, 3-chloro-6-[2-(dimethylphosphoryl)pyrimidin-5-yl]-7-fluoro-N-[(1R)-1-(2-fluorophenyl)ethyl]-2-methyl-1,5-naphthyridin-4-amine]",≤ 1000
2,"Cc1nc2cc(F)c(-c3cnc(P(C)(C)=O)nc3)cc2c(N[C@H](C)c2cc(C#N)ccc2F)c1Cl [Example 8, 3-[(1R)-1-({3-chloro-6-[2-(dimethylphosphoryl)pyrimidin-5-yl]-7-fluoro-2-methylquinolin-4-yl}amino)ethyl]-4-fluorobenzonitrile]",≤ 100
3,"CC[C@@H](Nc1c(Cl)c(C)nc2cc(F)c(-c3cnc(P(C)(C)=O)nc3)nc12)c1cc(C#N)ccc1F [Example 9, 3-[(1R)-1-({3-chloro-6-[2-(dimethylphosphoryl)pyrimidin-5-yl]-7-fluoro-2-methyl-1,5-naphthyridin-4-yl}amino)propyl]-4-fluorobenzonitrile]",≤ 100
4,"Cc1nc2cc(F)c(-c3ccc(P(C)(C)=O)nc3)cc2c(N[C@H](C)c2cc(C#N)ccc2F)c1Cl [Example 10, 3-[(1R)-1-({3-chloro-6-[6-(dimethylphosphoryl)pyridin-3-yl]-7-fluoro-2-methylquinolin-4-yl}amino)ethyl]-4-fluorobenzonitrile]",≤ 100
5,"Cc1nc2cc(F)c(-c3cnc(P(C)(C)=O)nc3)cc2c(N[C@H](C)c2ccccc2F)c1Cl [Example 11, 3-chloro-6-[2-(dimethylphosphoryl)pyrimidin-5-yl]-7-fluoro-N-[(1R)-1-(2-fluorophenyl)ethyl]-2-methylquinolin-4-amine]",≤ 100
6,"C[C@@H](Nc1c(Cl)cnc2cc(F)c(-c3cnc(P(C)(C)=O)nc3)cc12)c1cc(C#N)ccc1F [Example 12, 3-[(1R)-1-({3-chloro-6-[2-(dimethylphosphoryl)pyrimidin-5-yl]-7-fluoroquinolin-4-yl}amino)ethyl]-4-fluorobenzonitrile]",≤ 1000
7,"Cc1nc2cc(F)c(-c3ccc(P(C)(C)=O)nc3)nc2c(N[C@H](C)c2cc(C(N)=O)ccc2F)c1Cl [Example 13, 3-[(1R)-1-({3-chloro-6-[6-(dimethylphosphoryl)pyridin-3-yl]-7-fluoro-2-methyl-1,5-naphthyridin-4-yl}amino)ethyl]-4-fluorobenzamide]",≤ 100
8,"C[C@@H](Nc1c(Cl)cnc2cc(F)c(-c3cnc(P(C)(C)=O)nc3)nc12)c1cc(C#N)ccc1F [Example 14, 3-[(1R)-1-({3-chloro-6-[2-(dimethylphosphoryl)pyrimidin-5-yl]-7-fluoro-1,5-naphthyridin-4-yl}amino)ethyl]-4-fluorobenzonitrile]",≤ 1000
9,"C[C@@H](Nc1c(Cl)cnc2cc(F)c(-c3ccc(P(C)(C)=O)nc3)nc12)c1cc(C#N)ccc1F [Example 15, 3-[(1R)-1-({3-chloro-6-[6-(dimethylphosphoryl)pyridin-3-yl]-7-fluoro-1,5-naphthyridin-4-yl}amino)ethyl]-4-fluorobenzonitrile]",≤ 100
10,"CC[C@@H](Nc1c(Cl)c(C)nc2cc(F)c(-c3cnc(P(C)(C)=O)nc3)nc12)c1ccccc1F [Example 16, 3-chloro-6-[2-(dimethylphosphoryl)pyrimidin-5-yl]-7-fluoro-N-[(1R)-1-(2-fluorophenyl)propyl]-2-methyl-1,5-naphthyridin-4-amine]",≤ 100
11,"CC[C@H](Nc1c(Cl)c(C)nc2cc(F)c(-c3cnc(P(C)(C)=O)nc3)nc12)c1ccccc1F [Example 17, 3-chloro-6-[2-(dimethylphosphoryl)pyrimidin-5-yl]-7-fluoro-N-[(1S)-1-(2-fluorophenyl)propyl]-2-methyl-1,5-naphthyridin-4-amine]",≤ 1000
12,"Cc1nc2cc(F)c(-c3ccc(P(C)(C)=O)nc3)nc2c(N[C@H](C)c2ccccc2F)c1Cl [Example 18, 3-chloro-6-[6-(dimethylphosphoryl)pyridin-3-yl]-7-fluoro-N-[(1R)-1-(2-fluorophenyl)ethyl]-2-methyl-1,5-naphthyridin-4-amine]",≤ 100
13,"Cc1nc2cc(F)c(-c3ccc(P(C)(C)=O)nc3)cc2c(N[C@H](C)c2ccccc2F)c1Cl [Example 19, 3-chloro-6-[6-(dimethylphosphoryl)pyridin-3-yl]-7-fluoro-N-[(1R)-1-(2-fluorophenyl)ethyl]-2-methylquinolin-4-amine]",≤ 100
14,"CC[C@@H](Nc1c(Cl)c(C)nc2cc(F)c(-c3ccc(P(C)(C)=O)nc3)nc12)c1cc(C#N)ccc1F [Example 20, 3-[(1R)-1-({3-chloro-6-[6-(dimethylphosphoryl)pyridin-3-yl]-7-fluoro-2-methyl-1,5-naphthyridin-4-yl}amino)propyl]-4-fluorobenzonitrile]",≤ 100
15,"COP(=O)(O)c1ccc(-c2nc3c(N[C@H](C)c4cc(C#N)ccc4F)c(Cl)c(C)nc3cc2F)cn1 [Example 21, ammonium methyl 5-(7-chloro-8-{[(1R)-1-(5-cyano-2-fluorophenyl)ethyl]amino}-3-fluoro-6-methyl-1,5-naphthyridin-2-yl)pyridin-2-ylphosphonate]",≤ 1000
16,"CC[C@@H](Nc1c(Cl)c(C)nc2cc(F)c(-c3ccc(P(C)(C)=O)nc3)nc12)c1ccccc1F [Example 22, 3-chloro-6-[6-(dimethylphosphoryl)pyridin-3-yl]-7-fluoro-N-[(1R)-1-(2-fluorophenyl)propyl]-2-methyl-1,5-naphthyridin-4-amine]",≤ 100
17,"CC[C@H](Nc1c(Cl)c(C)nc2cc(F)c(-c3ccc(P(C)(C)=O)nc3)nc12)c1ccccc1F [Example 23, 3-chloro-6-[6-(dimethylphosphoryl)pyridin-3-yl]-7-fluoro-N-[(1S)-1-(2-fluorophenyl)propyl]-2-methyl-1,5-naphthyridin-4-amine]",≤ 100
18,"CC[C@@H](Nc1c(Cl)c(C)nc2cc(F)c(-c3ccc(P(C)(C)=O)c(F)c3)nc12)c1ccccc1F [Example 24, 3-chloro-6-[4-(dimethylphosphoryl)-3-fluorophenyl]-7-fluoro-N-[(1R)-1-(2-fluorophenyl)propyl]-2-methyl-1,5-naphthyridin-4-amine]",≤ 1000
19,"Cc1nc2cc(F)c(-c3ccc(P(C)(C)=O)nc3)nc2c(N[C@H](c2ccccc2F)C(F)F)c1Cl [Example 26, (R)-(5-(7-chloro-8-((2,2-difluoro-1-(2-fluorophenyl)ethyl)amino)-3-fluoro-6-methyl-1,5-naphthyridin-2-yl)pyridin-2-yl)dimethylphosphine oxide]",1000 to 10000
20,"Cc1nc2cc(F)c(-c3ccc(P4(=O)CCCC4)nc3)nc2c(N[C@H](C)c2cc(C#N)ccc2F)c1Cl [Example 27, 3-[(1R)-1-({3-chloro-7-fluoro-2-methyl-6-[6-(1-oxo-1lambda5-phospholan-1-yl)pyridin-3-yl]-1,5-naphthyridin-4-yl}amino)ethyl]-4-fluorobenzonitrile]",≤ 100
21,"CCP(=O)(CC)c1ncc(-c2nc3c(N[C@H](C)c4cc(C#N)ccc4F)c(Cl)c(C)nc3cc2F)cn1 [Example 28, 3-[(1R)-1-({3-chloro-6-[2-(diethylphosphoryl)pyrimidin-5-yl]-7-fluoro-2-methyl-1,5-naphthyridin-4-yl}amino)ethyl]-4-fluorobenzonitrile]",≤ 100
22,"Cc1nc2cc(F)c(-c3cnc(P(C)(C)=O)nc3)nc2c(NC(c2ccccc2F)C(F)F)c1Cl (stereo not drawn) [Example 29, 3-chloro-N-[2,2-difluoro-1-(2-fluorophenyl)ethyl]-6-[2-(dimethylphosphoryl)pyrimidin-5-yl]-7-fluoro-2-methyl-1,5-naphthyridin-4-amine]",≤ 1000
23,"CC[C@H](Nc1c(Cl)c(C)nc2cc(F)c(-c3cnc(P(C)(C)=O)nc3)nc12)c1cc(C#N)ccc1F [Example 30, 3-[(1S)-1-({3-chloro-6-[2-(dimethylphosphoryl)pyrimidin-5-yl]-7-fluoro-2-methyl-1,5-naphthyridin-4-yl}amino)propyl]-4-fluorobenzonitrile]",≤ 100
24,"Cc1nc2cc(F)c(N3CCC(P(C)(C)=O)CC3)nc2c(N[C@H](C)c2cc(C#N)ccc2F)c1Cl [Example 31, 3-[(1R)-1-({3-chloro-6-[4-(dimethylphosphoryl)piperidin-1-yl]-7-fluoro-2-methyl-1,5-naphthyridin-4-yl}amino)ethyl]-4-fluorobenzonitrile]",≤ 100
25,"CCOP(=O)(OCC)c1ccc(-c2nc3c(N[C@H](C)c4cc(C#N)ccc4F)c(Cl)c(C)nc3cc2F)cn1 [Example 32, diethyl 5-(7-chloro-8-{[(1R)-1-(5-cyano-2-fluorophenyl)ethyl]amino}-3-fluoro-6-methyl-1,5-naphthyridin-2-yl)pyridin-2-ylphosphonate]",≤ 100
26,"Cc1nc2cc(F)c(-c3ccc(OCP(C)(C)=O)nc3)nc2c(N[C@H](C)c2cc(C#N)ccc2F)c1Cl [Example 33, 3-[(1R)-1-[(3-chloro-6-{6-[(dimethylphosphoryl)methoxy]pyridin-3-yl}-7-fluoro-2-methyl-1,5-naphthyridin-4-yl)amino]ethyl]-4-fluorobenzonitrile]",≤ 100
27,"Cc1nc2cc(F)c(-c3ccc(P(C)(C)=O)nc3)nc2c(N[C@@H](c2cc(C#N)ccc2F)C(F)F)c1Cl [Example 34, (S)-3-(1-((3-chloro-6-(6-(dimethylphosphoryl)pyridin-3-yl)-7-fluoro-2-methyl-1,5-naphthyridin-4-yl)amino)-2,2-difluoroethyl)-4-fluorobenzonitrile]",≤ 100
